These are literature values, as cited in patent US6444700B1, “Product and method to reduce stress induced immune suppression” (Abbott Laboratories, priority 1998, dated 2002).

The structures appear in SMILES notation.

Take `CC1=C(/C=C/C(C)=C/C=C/C(C)=C/C=C/C=C(C)/C=C/C=C(C)/C=C/C2=C(C)CCCC2(C)C)C(C)(C)CCC1` [β-Carotene]: the “toxicity when given in very high doses” value (compared with vitamin A) is recorded as “not toxic”.

On to `[Se]` [selenium], for which the “intake from foods resulting in fingernail changes and hair loss” value (seleniferous zone of China) is “approximately 5 mg per day”.

Regarding `CC1=C(/C=C/C(C)=C/C=C/C(C)=C/CO)C(C)(C)CCC1` [Vitamin A, retinol], the “sustained daily intake at which signs of toxicity usually appear” value (foods and supplements) is “exceeding 15,000 RE”.
